Test results: patent EP0471221B1, “Herbicidal compositions” (IDEMITSU KOSAN COMPANY LIMITED, priority 1990, dated 1992)

Experiments:
Galium aparine L. = assay: Test on post-emergence treatment (greenhouse pots, foliage spray); format: in vivo; settings: after 20 days
Excerpt: (§1) By uniformly blending 97 parts of clay (trademark: JIKURAITO, manufactured by JIKURAITO KOGYO) as the carrier, 1.5 parts of alkylaryl sulfonate (trademark: NEOPELEX, manufactured by Kao Atlas Co., Ltd.) as the surfactant, 1.5 parts of nonionic and anionic surfactant (trademark: Solpol 800A, manufactured by Toho Chemical Industry Co., Ltd.) and grinding into a powder, a carrier for wettable powders was obtained.
(§2) By uniformly blending 90 parts of this carrier for wettable powders and 10 parts of the triazine derivative shown in Table 1 (Compounds A-1 through A-7) or 10 parts of the thiocarbamate type herbicide shown in Table 2 (Compounds B) and grinding into a powder, wettable powders were obtained.
(§3) Furthermore, the carrier for wettable powders containing the triazine derivative obtained above was blended with the carrier for wettable powders containing the thiocarbamate type herbicide in definite amounts (ratios as active ingredients), uniformly kneaded and ground into powders to give wettable powders.
(§4) Wagner's pots of 1/2000 ares were filled with soil from upland fields and planted with weed seeds of Alopecurus myosuroides, Galium aparine L., Veronica hederifolia and Viola arvensis and crop seeds of wheat, barley and oat. The seeds were then covered with soil and cultivated in a greenhouse. An aqueous suspension of a definite amount of the herbicide obtained in Formulation Example 6 was uniformly sprayed onto the foliage of 1.5 to 2.5 leaf stage of these weeds and 3 leaf stage of the crops at a spray volume corresponding to 100 liters/10 ares. Then, cultivation was performed in the greenhouse. After 20 days, crop injury and the herbicidal effect on the weeds were evaluated according to the criterion described below.
(§5) The herbicidal rate described above was determined according to the following equation by measuring the raw weight of weed on the ground in the treated group and the raw weight of weed on the ground in the untreated group. [formula]
(§6) Some data were extracted from the results shown in Table 3 and the synergistic effect of the triazine derivative and the thiocarbamate type herbicide was examined on Galium aparine L. and Viola arvensis according to the following method. [formula] Q a : found data (%) of herbicidal rate when treated at a dosage corresponding to a g/10 ares using the triazine derivative alone as active ingredient Q b : found data (%) of herbicidal rate when treated at a dosage corresponding to b g/10 ares using the thiocarbamate type herbicide alone as active ingredient Q E : expected value [Limpel, L.E., P.H. Schuldt and D. Lamont, Proc. NEWCC, 16, 48-53 (1962)] Herein, when the found data (herbicidal rate) of the herbicidal obtained by mixing the triazine derivative and the thiocarbamate type herbicide is larger than Q E, it can be said that the herbicidal activity is synergistic.

Viola arvensis = assay: as above; format: in vivo; settings: after 20 days
Excerpt: as §1, §2, §3, §4, §5, §6

[1] = triazine derivative alone, 10 g/10a
[2] = triazine derivative alone, 5 g/10a
[3] = thiocarbamate type herbicide alone, 100 g/10a

Structure (SMILES)	Percent control of Galium aparine L.(%) (Galium aparine L.; [1])	Percent control of Viola arvensis(%) (Viola arvensis; [1])	Percent control of Galium aparine L.(%) (Galium aparine L.; [2])	Percent control of Viola arvensis(%) (Viola arvensis; [2])	also measured
CC(Nc1nc(N)nc(C(C)(C)F)n1)c1cc2ccccc2s1 (stereo not drawn) [A₃, 2-amino-4-[1-(benzothiophen-2'-yl)ethylamino]-6-(α-fluoro,α-methylethyl)-s-triazine]	56	64			
CC(COc1cccc(F)c1)Nc1nc(N)nc(C(C)(C)F)n1 (stereo not drawn) [A₅, 2-amino-4-(α-fluoro,α-methylethyl)-6-[2-(3'fluorophenoxy)-1-methylethylamino]-s-triazine]			38	72	
Cc1cccc(OCC(C)Nc2nc(N)nc(C(C)(C)F)n2)c1 (stereo not drawn) [A₄, 2-amino-4-(α-fluoro,α-methylethyl)-6-[2-(3'-methylphenoxy)-1-methylethylamino]-s-triazine]	62	74			
Cc1cc(C)cc(OCC(C)Nc2nc(N)nc(C(C)(C)Cl)n2)c1 (stereo not drawn) [A₆, 2-amino-4-(α-chloro,α-methylethyl)-6-[2-(3',5'-dimethylphenoxy)-1-methylethylamino]-s-triazine]	64	78			
CC(Nc1nc(N)nc(C(C)(C)F)n1)c1cc2ccccc2o1 (stereo not drawn) [A₁, 2-amino-4-[1-(benzofuran-2'-yl)ethylamino]-6-(α-fluoro,α-methylethyl)-s-triazine]	38	54			
CC(F)c1nc(N)nc(NC(C)c2cc3ccccc3o2)n1 (stereo not drawn) [A₂, 2-amino-4-[1-(benzofuran-2'-yl)ethylamino]-6-(α-fluoroethyl)-s-triazine]			37	68	
CCCN(CCC)C(=O)SCc1ccccc1 [B, S-benzyldipropyl thiocarbamate, reference compound]					Percent control of Galium aparine L.(%) (Galium aparine L.; [3]): 36%; Percent control of Viola arvensis(%) (Viola arvensis; [3]): 19%
Cc1cc(C)cc(OCC(C)Nc2nc(N)nc(C(C)(C)F)n2)c1 (stereo not drawn) [A₇, 2-amino-4-(α-fluoro,α-methylethyl)-6-[2-(3',5'-dimethylphenoxy)-1-methylethylamino]-s-triazine]			40	63	
